# Reference: patent US5741819A, “Arylsulfonylaminobenzene derivatives and the use thereof as factor Xa inhibitors” (3-Dimensional Pharmaceuticals, Inc., priority 1995, dated 1998)
# Where two headings read alike, the source gives them in different places.
# Legend:
# Format in all cases: biochemical
# Factor Xa = target: T1, Factor Xa (Homo sapiens, UniProt P00742); experiment: In vitro inhibition of purified factor Xa (hydrolysis of Bz-Ile-Glu-Gly-Arg-pNa); conditions: purified enzyme, 10 nM factor Xa, 26 μM substrate, pH 7.5, 37° C.
# T1 construct: purchased Enzyme Research Laboratories, Inc
# T1 sequence (P00742 235-488 limits assumed): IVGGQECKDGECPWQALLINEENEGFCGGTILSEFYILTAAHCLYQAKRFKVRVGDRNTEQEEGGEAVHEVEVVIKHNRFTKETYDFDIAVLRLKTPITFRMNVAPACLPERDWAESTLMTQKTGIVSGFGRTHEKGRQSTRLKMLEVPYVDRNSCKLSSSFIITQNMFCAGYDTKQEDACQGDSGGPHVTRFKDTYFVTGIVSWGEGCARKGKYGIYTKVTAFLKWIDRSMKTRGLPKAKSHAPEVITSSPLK
# T1 sequence (P00742 41-179 partner limits assumed): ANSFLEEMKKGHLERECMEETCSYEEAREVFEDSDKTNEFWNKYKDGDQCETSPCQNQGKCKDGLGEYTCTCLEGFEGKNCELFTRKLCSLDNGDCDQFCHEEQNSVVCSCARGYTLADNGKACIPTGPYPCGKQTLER
# Procedure: (§1) The ability of the compounds of the present invention to act as inhibitors of thrombin, factor Xa and plasmin catalytic activity was assessed by determining the concentration that inhibited enzyme activity by 50% using purified human enzymes. The concentration of added inhibitor that caused a 50% decrease in the initial rate of hydrolysis was defined as the IC50 value.
# (§2) All assays are based on the ability of the test compound to inhibit the hydrolysis of a peptide p-nitroanilide substrate. In a typical experiment, appropriate substrate is prepared in DMSO, and diluted into an assay buffer consisting of 50 mM HEPES and 130 mM NaCl at a pH of 7.5. The final concentration for each of the substrates is listed below. All substrate concentrations are at least 10 fold lower than Km to insure inhibition is competitive. Test compounds are prepared as 1 mg/mL solutions in DMSO, and three additional 10-fold dilutions in DMSO are prepared. Enzyme solutions are prepared at the concentrations listed below in assay buffer.
# (§3) In a typical IC50 determination, into each well of a 96 well plate is pipetted 280 μL of substrate solution, 10 μL of inhibitor solution, and the plate is allowed to thermally equilibrate at 37° C. in a Molecular Devices Plate Reader for at least 10 minutes. Reactions are initiated by the addition of a 20 μL aliquot of enzyme, and the absorbance increase at 405 nm is recorded for 15 minutes. Data corresponding to less than 10% of the total substrate hydrolysis is used in the calculations. The ratio of the velocity (rate of the change in absorbance as a function of time) for a sample containing no inhibitor is divided by the velocity of a sample containing inhibitor, and is plotted as a function of inhibitor concentration. The inverse of the slope is the concentration of inhibitor which produces a 50% decrease in activity of the enzyme. This concentration is referred to as the IC50.
# Factor Xa activity was assessed as the ability to hydrolyze the substrate Bz-Ile-Glu-Gly-Arg-pNa, and was obtained from Sigma. Substrate solutions were prepared at a concentration of 26 μM (26 μM<<Km =1.3 mM) in assay buffer. Final DMSO concentration was 0.3%. Activated factor Xa was obtained from Enzyme Research Laboratories, Inc., and was diluted into assay buffer to a concentration of 1.2 μM. Final reagent concentrations were: [Factor Xa]=10 nM, [Bz-Ile-Glu-Gly-Arg-pNa]=26 μM, [inhibitor]=60to 0.06 μM.
# human α-thrombin = human α-thrombin (Homo sapiens, UniProt P00734); experiment: In vitro inhibition of purified thrombin (hydrolysis of Bz-Phe-Val-Arg-pNa); conditions: for IC50: purified human α-thrombin 36 nM, pH 7.5, 37° C.; for inhibition at 60 µM: at 60 μM inhibitor
# Procedure: as §1, §2, §3
# Thrombin activity was assessed as the ability to hydrolyze the substrate N-benzoyl-Phe-Val-Arg-p-nitroanilide (Bz-Phe-Val-Arg-pNa), and was obtained from Sigma Chemical Company (St. Louis, Mo.). Substrate solutions were prepared at a concentration of 60 μM (60 μM<<Km =1.2 mM) in assay buffer. Final DMSO concentration was 0.3%. […] Final reagent concentrations were: [thrombin]=36 nM, [Bz-Phe-Val-Arg-pNa]=[…], [inhibitor]=60 to 0.06 μM.
# human plasmin = human plasmin (Homo sapiens, UniProt P00747); experiment: In vitro inhibition of purified plasmin (hydrolysis of Tos-Gly-Pro-Lys-pNa); conditions: for inhibition at 60 µM: at 60 μM inhibitor
# Chain of human plasmin (P00747 581-810 limits assumed): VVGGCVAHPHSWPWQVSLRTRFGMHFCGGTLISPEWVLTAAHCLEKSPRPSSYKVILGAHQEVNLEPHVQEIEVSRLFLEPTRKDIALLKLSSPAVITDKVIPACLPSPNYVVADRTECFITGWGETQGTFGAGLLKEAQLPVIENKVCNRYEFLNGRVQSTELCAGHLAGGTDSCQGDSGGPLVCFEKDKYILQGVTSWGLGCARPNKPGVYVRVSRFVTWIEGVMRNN
# Chain of human plasmin (P00747 97-580 partner limits assumed): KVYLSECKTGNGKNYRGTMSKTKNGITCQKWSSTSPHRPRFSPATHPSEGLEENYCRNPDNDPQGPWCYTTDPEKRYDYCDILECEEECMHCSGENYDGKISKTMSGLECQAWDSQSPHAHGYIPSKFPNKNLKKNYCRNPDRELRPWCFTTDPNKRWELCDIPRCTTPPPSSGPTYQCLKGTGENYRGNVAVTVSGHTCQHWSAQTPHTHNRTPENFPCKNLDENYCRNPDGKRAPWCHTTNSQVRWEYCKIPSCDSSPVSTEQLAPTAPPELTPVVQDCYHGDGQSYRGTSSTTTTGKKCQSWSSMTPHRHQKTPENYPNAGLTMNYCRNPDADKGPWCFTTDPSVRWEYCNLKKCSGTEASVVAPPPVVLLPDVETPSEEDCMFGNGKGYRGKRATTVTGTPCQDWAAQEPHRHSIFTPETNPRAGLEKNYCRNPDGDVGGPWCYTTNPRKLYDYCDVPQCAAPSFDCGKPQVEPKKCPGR
# Procedure: as §1, §2, §3
# Plasmin activity was assessed as the ability to hydrolyze the substrate Tos-Gly-Pro-Lys-pNa, and was obtained from Sigma. Substrate solutions were prepared at a concentration of 22 μM (22 μM<<Km =240 μM) in assay buffer. Final DMSO concentration was 0.3%. Purified human plasmin was obtained from Enzyme Research Laboratories Inc, and was diluted into assay buffer to a concentration of 1.2 μM. Final reagent concentrations were: [plasmin]=15 nM, […], [inhibitor]=60 to 0.06 μM.
# [1] = purified human plasmin 15 nM, pH 7.5, 37° C., read-out: Plasmin Inhibition (IC50)
SMILES,IC50 (Factor Xa) [µM],IC50 (human α-thrombin) [µM],IC50 (human plasmin) [µM],inhibition at 60 µM (human plasmin) [%],inhibition at 60 µM (human α-thrombin) [%],IC50 (human plasmin; [1]) [µM]
"O=C(NCC(O)c1cccc(O)c1)c1cccc(NS(=O)(=O)c2ccc3ccccc3c2)c1 (stereo not drawn) [Compound 14, 3-[(2-Naphthalenylsulfonyl)amino]-N-[2-hydroxy-2-(3'-hydroxyphenyl)ethyl]benzamide]",11.4,87,86.1,,,
CN(C)c1ccc(CNC(=O)c2cccc(NS(=O)(=O)c3ccc4ccccc4c3)c2)cc1 [Compound 16],3.2,52.8,,0,,
"COc1cc(CNC(=O)c2cccc(NS(=O)(=O)c3ccccc3)c2)ccc1O [Compound 20, 3-[(Phenylsulfonyl)amino]-N-[(4-hydroxy-3-methoxyphenyl)methyl]benzamide]",19.2,,,,0,5.8
"COc1cc(C(O)CNC(=O)c2cccc(NS(=O)(=O)c3ccccc3)c2)ccc1O (stereo not drawn) [Compound 22, 3-[(Phenylsulfonyl)amino]-N-[2-hydroxy-2-(4'-hydroxy-3'-methoxyphenyl)ethyl]benzamide]",20.8,38.3,,0,,
O=C(NCCc1ccccn1)c1cccc(NS(=O)(=O)c2ccc3ccccc3c2)c1 [Compound 27],2,294,,0,,
"CN(C)c1ccc(CNC(=O)c2cccc(NS(=O)(=O)c3cccc(N)c3)c2)cc1 [Compound 31, 3-[(3'-Aminophenylsulfonyl)amino]-N-[4'-[(N', N'-dimethylamino)phenyl]methyl]benzamide]",16.5,,,,0,15.2
"NCCCCCNC(=O)c1cccc(NS(=O)(=O)c2ccc3ccccc3c2)c1 [Compound 32, 3-[(2-Naphthalenylsulfonyl)amino]-N-(5-aminopentyl)benzamide]",7.6,,,0,0,
